Experimental data reported in US20130261077A1 (priority 2012, published 2013).

Molecular target: T1, FimH-CRD (Escherichia coli, UniProt P08191)
T1 construct: The first 177 amino acids of the FimH protein; thrombin tag (printed as 'fusion protein with thrombin') (cleaved yes); made in house; host or cells: bacteria (pET21b plasmid)
Assay: Competitive binding assay by fluorescence polarization, assay 1 (compounds prepared by manual serial dilution)
In short: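 Fluorescence-polarization competition of 5 nM Alexa 647 mannoside probe with 60 nM FimH-CRD (first 177 residues, tag removed) in Tris-Cl pH 7.0, NaCl, EDTA, β-ME, BSA, 2.5% DMSO, 5 h at RT in the dark. Twelve-point 3-fold titrations (0.4 nM–75 μM) in duplicate; Kd interpolated from displacement curves.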

T1 sequence (P08191 22-177): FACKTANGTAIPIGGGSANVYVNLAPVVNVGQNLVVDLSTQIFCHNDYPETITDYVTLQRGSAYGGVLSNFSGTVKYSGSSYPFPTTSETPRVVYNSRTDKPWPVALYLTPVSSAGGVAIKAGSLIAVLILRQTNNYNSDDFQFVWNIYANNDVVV

## OC[C@H]1O[C@H](O[C@@H]2[C@H](O)[C@@H](c3cccc(Oc4ccc(F)cc4)c3)O[C@H](CO)[C@H]2O)[C@@H](O)[C@@H](O)[C@@H]1O [Compound 270, (2R,3S,4S,5S,6R)-2-[(2R,3R,4R,5R,6R)-2-[3-(4-Fluorophenoxy)phenyl]-3,5-dihydroxy-6-(hydroxymethyl)tetrahydropyran-4-yl]oxy-6-(hydroxymethyl)tetrahydropyran-3,4,5-triol]
  IC50: 54 nM
  Kd: 14.4 ± 2.6 nM

## OC[C@H]1O[C@H](O[C@@H]2[C@H](O)[C@@H](c3cccc(Oc4ccccc4)c3)O[C@H](CO)[C@H]2O)[C@@H](O)[C@@H](O)[C@@H]1O [Compound 271, (2R,3S,4S,5S,6R)-2-[(2R,3R,4R,5R,6R)-3,5-Dihydroxy-2-(hydroxymethyl)-6-(3-phenoxyphenyl)tetrahydropyran-4-yl]oxy-6-(hydroxymethyl)tetrahydropyran-3,4,5-triol]
  IC50: 27 nM
  Kd: 14.7 ± 7 nM

## Cc1nnc(-c2ccc(Oc3cccc([C@H]4O[C@H](CO)[C@@H](O)[C@H](O[C@H]5O[C@H](CO)[C@@H](O)[C@H](O)[C@@H]5O)[C@@H]4O)c3)cc2)o1 [Compound 272, (2R,3S,4S,5S,6R)-2-[(2R,3R,4R,5R,6R)-3,5-Dihydroxy-2-(hydroxymethyl)-6-[3-[4-(5-methyl-1,3,4-oxadiazol-2-yl)phenoxy]phenyl]tetrahydropyran-4-yl]oxy-6-(hydroxymethyl)tetrahydropyran-3,4,5-triol]
  IC50: 46 nM
  Kd: 12.7 ± 7.7 nM

## Cc1cc(C)cc(Oc2cccc([C@H]3O[C@H](CO)[C@@H](O)[C@H](O[C@H]4O[C@H](CO)[C@@H](O)[C@H](O)[C@@H]4O)[C@@H]3O)c2)c1 [Compound 274, (2R,3S,4S,5S,6R)-2-[(2R,3R,4R,5R,6R)-2-[3-(3,5-Dimethylphenoxy)phenyl]-3,5-dihydroxy-6-(hydroxymethyl)tetrahydropyran-4-yl]oxy-6-(hydroxymethyl)tetrahydropyran-3,4,5-triol]
  IC50: 34 nM
  Kd: 43.1 ± 53 nM

## CNC(=O)c1ccc(-c2cccc([C@H]3O[C@H](CO)[C@@H](O)[C@H](O[C@H]4O[C@H](CO)[C@@H](O)[C@H](O)[C@@H]4O)[C@@H]3O)c2)cc1 [Compound 275, 4-[3-[(2R,3R,4R,5R,6R)-3,5-Dihydroxy-6-(hydroxymethyl)-4-[(2R,3S,4S,5S,6R)-3,4,5-trihydroxy-6-(hydroxymethyl)tetrahydropyran-2-yl]oxy-tetrahydropyran-2-yl]phenyl]-N-methyl-benzamide]
  IC50: 28 nM
  Kd: 26.8 ± 15.4 nM

## CS(=O)(=O)c1ccc(-c2cccc([C@H]3O[C@H](CO)[C@@H](O)[C@H](O[C@H]4O[C@H](CO)[C@@H](O)[C@H](O)[C@@H]4O)[C@@H]3O)c2)cc1 [Compound 276, (2R,3S,4S,5S,6R)-2-[(2R,3R,4R,5R,6R)-3,5-dihydroxy-2-(hydroxymethyl)-6-[3-(4-methylsulfonylphenyl)phenyl]tetrahydropyran-4-yl]oxy-6-(hydroxymethyl)tetrahydropyran-3,4,5-triol]
  IC50: 49 nM
  Kd: 11.1 ± 3.4 nM

## CNC(=O)c1cc(C(=O)NC)cc(-c2cccc([C@H]3O[C@H](CO)[C@@H](O)[C@H](O[C@H]4O[C@H](CO)[C@@H](O)[C@H](O)[C@@H]4O)[C@@H]3O)c2)c1 [Compound 277, 5-[3-[(2R,3R,4R,5R,6R)-3,5-Dihydroxy-6-(hydroxymethyl)-4-[(2R,3S,4S,5S,6R)-3,4,5-trihydroxy-6-(hydroxymethyl)tetrahydropyran-2-yl]oxy-tetrahydropyran-2-yl]phenyl]-N1,N3-dimethyl-benzene-1,3-dicarboxamide]
  IC50: 47 nM
  Kd: 10.7 ± 3.9 nM

## OC[C@H]1O[C@H](O[C@@H]2[C@H](O)[C@@H](c3cccc(C4CCCCC4)c3)O[C@H](CO)[C@H]2O)[C@@H](O)[C@@H](O)[C@@H]1O [Compound 278, (2R,3S,4S,5S,6R)-2-[(2R,3R,4R,5R,6R)-2-(3-Cyclohexylphenyl)-3,5-dihydroxy-6-(hydroxymethyl)tetrahydropyran-4-yl]oxy-6-(hydroxymethyl)tetrahydropyran-3,4,5-triol]
  IC50: 64 nM
  Kd: 12.7 ± 0.9 nM
